Assay results reported in patent publication US20040191843A1, “Cell-killing molecules and methods of use thereof” (Palo Alto Institute of Molecular Medicine, priority 2003, published 2004).
Entries after “also recorded” stand apart in the source; their conditions may differ. Where two headings read alike, the source gives them in different places.

Experiments:
SK Hep-1 = assay: 48 h MTT dye reduction assay; assay type: cell-based; conditions: Homo sapiens, SK-HEP1, read-out: IC50 Values ± SEM (n)
Source text: (§1) The cytotoxic activity of rADF-Ant was compared to several chemotherapeutic drugs on a panel of three HCC cell lines.

Hep3B = assay: 48 h MTT dye reduction assay; assay type: cell-based; conditions: Homo sapiens
Source text: as §1
(§2) Without limiting the invention to any particular mechanism, another possible mechanism of resistance is expression of the multidrug resistance associated protein (MRP). This protein is thought to exert a function similar to the p-glycoprotein, and is expressed at high levels in the HepG2 and SK Hep-1 cell lines (Takeuchi, et al., 1999, J Gastroenterol 34:351-358). Increased expression of thioredoxin, which functions as a cellular defense mechanism against oxidative stress, may also protect HCC's from some chemotherapeutic agents (Kawahara, et al., 1996, Cancer Res 56:5330-5333). Expression of different xenobiotic enzymes (e.g. cytochrome P-450 and glutathione S-transferase) may also contribute to the intrinsic drug resistance of HCC (Murray, et al., 1993, Cancer 71:36-43). Additional studies explored whether the high intrinsic levels of drug resistance in the HCC lines can be even further augmented by adherence to ECM protein. Overexpression of b1 integrin and its role in the progression of HCC has been reported (Patriarca, et al., 1993, J Pathol 171:5-11). Overexpression of b1-integrin in several HCC lines (including HepG2) protected them from chemotherapeutic drug-induced apoptosis via a MAP kinase-dependent pathway (Zhang, et al., 2002, Cancer 95:896-906). Knockout of a6b1-integrin expression reversed the transformed phenotype of HepG2 cells (Carloni et al., 1998, Gastroenterology. 115:433-442). […] These properties of HCCs may contribute to the marked changes in amount and distribution of ECM components found in the stroma of HCC as compared to normal liver (Jaskiewicz, et al., 1993, Anticancer Res 13:2229-2238). Thus, the combination of increased expression of integrins in HCCs as well as abnormalities in the surrounding ECM may create an environment that both promotes tumor growth and inhibits apoptosis. Therefore, the inventors tested HepG2 and Hep3B for drug sensitivity when assayed on plates coated with BSA as a control, or on FN as described above for U937 cells.

HepG2 = assay: 48 h MTT dye reduction assay; assay type: cell-based; conditions: Homo sapiens
Source text: as §1, §2

MES-SA/Dx5 (MDR1 high) = assay: cells; conditions: 48 h, read-out: IC50 Values
Source text: (§3) One of the most frequently reported alterations associated with multidrug resistance is increased expression of the 170 kDa membrane protein called P-glycoprotein encoded by the MDR1 gene. It functions as an energy-dependent drug efflux pump that reduces intracellular drug accumulation, thereby causing resistance to many structurally unrelated drugs (Roninson, et al., 1986, Proc Natl Acad Sci 83:4538-4542). To determine if MDR1 overexpressing cells were sensitive to rADF, the inventors tested the parental drug-sensitive uterine sarcoma, MES-SA, compared to a variant selected by culturing in doxorubicin, MES-SA/Dx5, described previously (Chen et al., 1997).

U9-NAD - = assay: DNA fragmentation in whole cells (release of 3H-labeled DNA fragments, 4 h); assay type: cell-based; conditions: Homo sapiens, read-out: IC50 Value (minimal concentration to cause 50% DNA fragmentation)
Protocol: (§4) DNA fragmentation in whole cells or normal nuclei isolated from U937 or MCF-7 cells was assayed by release of (3H)thymidine-labeled DNA fragments as described in detail previously (Wright et al. (1994) J. Exp. Med. 180, 2113-2123). DNA fragmentation induced by rADF treatment of isolated nuclei for four h was analyzed by agarose electrophoresis as described in detail previously (Wright et al. (1994) supra). In four h assays using isolated nuclei, the buffer was supplemented with an ATP regenerating system (2 mM ATP, 10 mM phosphocreatine, and 50 μg/ml creatine kinase).
(§5) Another mechanism whereby cancer cells may resist apoptosis is through overexpression of heat shock (HS) proteins which have been found at high levels in most tumor cell biopsies (Jaattela, et al., 1999, Exp Cell Res 248:30-43). […] We have studied the mechanisms of apoptosis resistance using several variants derived from the U937 cell line. Variants generated by prolonged growth in the presence of TNF (U9-TR) or by nutritional depletion of intracellular NAD content (U9-NAD-) have been described in the literature previously (Wright, et al., 1992, Cancer Immunol Immunother 34:399-406; Wright, et al., 1996b, J. Exp. Med. 183: 463-477). Both of these variants were resistant to apoptosis induced by diverse agents, such as chemotherapeutic drugs, UV light, and TNF.

U937 cells [1] = assay: as above; assay type: cell-based, human; conditions: for IC50: Homo sapiens, U-937, 4 h
Protocol: as §4

MES-SA (parental) = assay: 48 h MTT dye reduction assay; assay type: cell-based; conditions: Homo sapiens
Source text: as §3

HL-60 Bcl-2 = assay: DNA fragmentation in whole cells (release of 3H-labeled DNA fragments, 4 h); assay type: cell-based; conditions: Homo sapiens
U9-TR = assay: as above; assay type: cell-based, human; conditions: Homo sapiens; U9-TR; 4 hr; read-out: IC50 Value (minimal concentration to cause 50% DNA fragmentation)
Protocol: as §4, §5

U937 cells [2] = assay: Viability by trypan blue exclusion after 4 h treatment; assay type: cell-based, human; conditions: for IC50: Homo sapiens, U-937, trypan blue, 4 h
HL-60 neo = assay: DNA fragmentation in whole cells (release of 3H-labeled DNA fragments, 4 h); assay type: cell-based; conditions: Homo sapiens
isolated MCF-7 nuclei = assay: DNA fragmentation in isolated nuclei (release of 3H-labeled DNA fragments); assay type: biochemical, human; conditions: nuclei from MCF-7 cells (no caspase 3); four h assay
isolated U937 nuclei = assay: DNA fragmentation in isolated nuclei (release of 3H-labeled DNA fragments; agarose gel); assay type: biochemical, human
Protocol: as §4
ADF was purified from 2.9 mg of pig heart mitochondrial MDH obtained from Worthington Enzymes, New Jersey. Protein was fractionated by gel filtration on a Tosohaas G2000SWXL 7.8 mm×300 mm HPLC column, and each fraction tested for DNA fragmentation in isolated U937 nuclei (ADF activity) and for MDH enzyme activity. Active fractions were pooled and applied to a reverse phase C4 Brownlee 2.1 mm×220 mm column equilibrated in H2O+0.0075% trifluoroacetic acid pH 6.5, and eluted with a linear gradient to 40% acetonitrile.
In preliminary studies, the inventors observed that supernatants of normal mitochondria derived from cultured cells or freshly isolated liver cells incubated in vitro contained activity that induced internucleosomal DNA cleavage in isolated U937 nuclei. […] To ascertain that the DNA fragmenting activity of MDH was not due to a contaminating nuclease, the inventors purified the commercial enzyme to determine the source of the ADF activity.
Therefore, it is likely that ADF directly or indirectly activates endonucleases present in isolated nuclei.

ICAD/DFF45 = assay: Western blot for ICAD cleavage in rADF-treated nuclei; assay type: biochemical, human; conditions: U937 nuclei treated with rADF
naked DNA = assay: DNase assay on naked DNA substrate (rADF alone or extracts of rADF-treated U937 nuclei); assay type: biochemical, human
[3] = Hep3B (BSA) plate coating, read-out: IC50 Values
[4] = Hep3B (FN) plate coating, read-out: IC50 Values
[5] = read-out: IC50 Values ± SEM (n)
[6] = HepG2, 48 h, HepG2 (BSA) plate coating, read-out: IC50 Values
[7] = HepG2, 48 h, HepG2 (FN) plate coating, read-out: IC50 Values
[8] = HepG2, 48 h, HepG2, read-out: IC50 Values ± SEM (n)

`O=c1[nH]cc(F)c(=O)[nH]1` [5-FU, 5-fluorouracil] showed an IC50 (SK Hep-1) of 203 µM, an IC50 (Hep3B; [3]) of 490 µM and an IC50 (Hep3B; [4]) of over 2 µM. The IC50 (Hep3B; [5]) was 410 µM, the IC50 (HepG2; [6]) was 515 µM and the IC50 (HepG2; [7]) was over 2 µM. The IC50 (HepG2; [8]) was 620 µM.

With `COc1cccc2c1C(=O)c1c(O)c3c(c(O)c1C2=O)C[C@@](O)(C(=O)CO)C[C@@H]3O[C@H]1C[C@H](N)[C@H](O)[C@H](C)O1` [Dox, doxorubicin] the IC50 (SK Hep-1) was 73 µM, the IC50 (Hep3B; [3]) was 86 µM and the IC50 (Hep3B; [4]) was over 400 µM. It also gave an IC50 (Hep3B; [5]) of 80 µM, an IC50 (HepG2; [6]) of 104 µM and an IC50 (HepG2; [7]) of over 400 µM. For the same molecule, the IC50 (HepG2; [8]) was 122 µM.

For `COc1cc([C@@H]2c3cc4c(cc3[C@@H](O[C@@H]3O[C@@H]5CO[C@@H](C)O[C@H]5[C@H](O)[C@H]3O)[C@H]3COC(=O)[C@H]23)OCO4)cc(OC)c1O` [Etoposide, etoposide], the IC50 (MES-SA/Dx5 (MDR1 high)) was over 500 µM, the IC50 (U9-NAD -) was over 500 µM and the IC50 (SK Hep-1) was 58 µM. For the same molecule, the IC50 (U937 cells [1]; U937, 4 hr, read-out: IC50 Value (minimal concentration to cause 50% DNA fragmentation)) was 12 µM, the IC50 (U937 cells [1]; U937 on BSA, 4 h DNA fragmentation, read-out: IC50 Values) was 4 µM and the IC50 (U937 cells [1]; U937 on FN, 4 h DNA fragmentation, read-out: IC50 Values) was 15 µM. For the same molecule, the “fold higher concentration to induce 50% DNA fragmentation” value (U937 cells [1]; cells adhering to FN vs plated on BSA) was “about 5 fold”, the IC50 (Hep3B; [3]) was 210 µM and the IC50 (Hep3B; [4]) was 840 µM. For the same molecule, the IC50 (Hep3B; [5]) was 95 µM, the IC50 (HepG2; HepG2 (BSA) plate coating, read-out: IC50 Values) was 35 µM and the IC50 (HepG2; HepG2, read-out: IC50 Values ± SEM (n)) was 231 µM. It also gave an IC50 (MES-SA (parental)) of 59 µM, an IC50 (HL-60 Bcl-2) of 380 µM and an IC50 (U9-TR) of over 500 µM. The IC50 (U937 cells [2]; U937 + PMA (10 nM, 3 days)) was 510 µM, the IC50 (U937 cells [2]; U937) was 4 µM and the “factor of resistance of PMA-treated cells” value (U937 cells [2]; PMA-treated vs normal U937) was 127 fold. For the same molecule, the IC50 (HL-60 neo) was 26 µM.

B1: rADF: recombinant human activator of DNA fragmentation, 9 kDa C-terminal fragment of mitochondrial MDH, SEQ ID NO:7 (protein, listed as Homo sapiens)
chain: KAKAGAGSATLSMAYAGARFVFSLVDAMNGKEGVVECSFVKSQETECTYFSTPLLLGKKGIEKNLGIGKVSSFEEKMISDAIPELKASIKKGEDFVKTLK
For B1, the “activation of nuclear DNA fragmentation” value (isolated MCF-7 nuclei) was “dose-dependent activation”, the “internucleosomal DNA fragmentation” value (isolated U937 nuclei; agarose gel, 4 h) was “induced internucleosomal DNA fragmentation” and the “activation of nuclear DNA fragmentation” value (isolated U937 nuclei; nuclei from U937 cells, four h assay) was “dose-dependent activation”. For the same molecule, the “DNA fragmentation activity at the same concentrations” value (U937 cells [1]; 2.25-9 nM, 4 h assay) was “little activity”, the ICAD/DFF45 cleavage (ICAD/DFF45) was “not cleaved” and the “DNase activity on naked DNA of extracts from treated nuclei” value (naked DNA; U937 nuclei incubated with rADF 20 h) was “digested naked DNA”. The “digestion of naked DNA by rADF itself” value (naked DNA; rADF without nuclei) was “did not digest naked DNA; also recorded: little or no activity”.

B2: MDH derived from porcine heart mitochondria: commercial preparation of mitochondrial malate dehydrogenase (Worthington Enzymes) (protein, UniProt P00346 25-338, looked up)
Malate dehydrogenase, …: AKVAVLGASGGIGQPLSLLLKNSPLVSRLTLYDIAHTPGVAADLSHIETRATVKGYLGPEQLPDCLKGCDVVVIPAGVPRKPGMTRDDLFNTNATIVATLTAACAQHCPDAMICIISNPVNSTIPITAEVFKKHGVYNPNKIFGVTTLDIVRANAFVAELKGLDPARVSVPVIGGHAGKTIIPLISQCTPKVDFPQDQLSTLTGRIQEAGTEVVKAKAGAGSATLSMAYAGARFVFSLVDAMNGKEGVVECSFVKSQETDCPYFSTPLLLGKKGIEKNLGIGKISPFEEKMIAEAIPELKASIKKGEEFVKNMK
With B2 the “concentrations dose-dependently inducing nuclear DNA fragmentation” value (isolated U937 nuclei; isolated nuclei) was 2 to 10 µg/mL.
